Assay in all cases: relative viability (nuclei count vs DMSO), 5 days (fraction); higher = more cells survive
Compound in experiment [1]: Cc1ccc(C(=O)N(CCCN)[C@@H](c2nc3cc(Cl)ccc3c(=O)n2Cc2ccccc2)C(C)C)cc1 [Ispinesib]
A digest of the protocol:
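Cells of lung cancer lines were placed in 1536-well plates and kept overnight at 37 °C. Pinning then delivered five library-drug doses (not always all listed), spaced by √10, onto plates anchored with vehicle, and the cells were left 5 days without changing medium. One step fixed, permeabilised and stained them with Hoechst, and MetaXpress counted nuclei in 4× images. Viability, as a median over plates, is treated-well nuclei divided by vehicle-well nuclei, with acceptance only at control CV below 25% and at least one doubling.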

Compound in experiment [2]: C[C@]1(O)C[C@@H](c2nc(-c3ccc4ccc(-c5ccccc5)nc4c3)c3c(N)nccn32)C1 [Linsitinib] + CC1(C)CCC(c2ccc(Cl)cc2)=C(CN2CCN(c3ccc(C(=O)NS(=O)(=O)c4ccc(N[C@H](CCN5CCOCC5)CSc5ccccc5)c(S(=O)(=O)C(F)(F)F)c4)cc3)CC2)C1 [Navitoclax] (partner 0.5 µM)
The method, boiled down:
(§1)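 Relative viability is defined as nuclei in treated wells over nuclei in vehicle wells. Duplicate plates were run and medians reported. Lung cancer cell lines in 1536-well plates were dosed by pin tool one day after seeding, with one drug or with a fixed anchor-drug dose plus five library-drug doses (not always all listed) in √10 steps, and nuclei were counted after 5 days.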

Compound in experiment [3]: C[C@]1(O)C[C@@H](c2nc(-c3ccc4ccc(-c5ccccc5)nc4c3)c3c(N)nccn32)C1 [Linsitinib] + O=C(CCCCCCC(=O)Nc1ccccc1)NO [Vorinostat] (partner 1 µM)
The method, boiled down:
as §1

Compound in experiment [4]: Cc1ccc(C(=O)N(CCCN)[C@@H](c2nc3cc(Cl)ccc3c(=O)n2Cc2ccccc2)C(C)C)cc1 [Ispinesib] + Nc1nc2[nH]cc(CCc3ccc(C(=O)N[C@@H](CCC(=O)O)C(=O)O)cc3)c2c(=O)[nH]1 [Pemetrexed] (partner 0.2 µM)
The method, boiled down:
as §1

Consider NCI-H2085, for which the relative viability is 1.02 in experiment [1] (0.001 µM); 1.02 in experiment [1] (0.003162 µM); 1.06 in experiment [1] (0.01 µM); 0.854 in experiment [1] (0.03162 µM); 0.536 in experiment [1] (0.1 µM); 1.03 in experiment [2] (first compound 0.01 µM). The relative viability in experiment [2] (first compound 0.03162 µM) is 1.11; in experiment [2] (first compound 0.1 µM), 1.22; in experiment [2] (first compound 0.3162 µM), 1.07; in experiment [2] (first compound 1 µM), 1.2; in experiment [3] (first compound 0.01 µM) it was 0.778; in experiment [3] (first compound 0.03162 µM), 0.707. In addition, the relative viability in experiment [3] (first compound 0.1 µM) turned out to be 0.791; in experiment [3] (first compound 0.3162 µM), 0.8; in experiment [3] (first compound 1 µM), 0.681; in experiment [4] (first compound 0.001 µM), 0.946; in experiment [4] (first compound 0.003162 µM), 0.905; in experiment [4] (first compound 0.01 µM), 0.943. The values for the relative viability in experiment [4] (first compound 0.03162 µM) and in experiment [4] (first compound 0.1 µM) were 0.917 and 0.361, respectively.

As for HCC-366, the relative viability in experiment [1] (0.001 µM) stood at 1.03; in experiment [1] (0.003162 µM), 1.03; in experiment [1] (0.01 µM) it was 1.08; in experiment [1] (0.03162 µM) it was 0.935; in experiment [1] (0.1 µM), 0.0315; in experiment [2] (first compound 0.01 µM), 1.04. The relative viability is 0.782 in experiment [2] (first compound 0.03162 µM); 1.12 in experiment [2] (first compound 0.1 µM); 0.921 in experiment [2] (first compound 0.3162 µM); 0.996 in experiment [2] (first compound 1 µM); 0.41 in experiment [3] (first compound 0.01 µM); 0.328 in experiment [3] (first compound 0.03162 µM). Besides, the relative viability stood at 0.324 in experiment [3] (first compound 0.1 µM); 0.218 in experiment [3] (first compound 0.3162 µM); 0.0911 in experiment [3] (first compound 1 µM); 0.18 in experiment [4] (first compound 0.001 µM); 0.189 in experiment [4] (first compound 0.003162 µM); 0.176 in experiment [4] (first compound 0.01 µM). Also, the relative viability in experiment [4] (first compound 0.03162 µM) was 0.153; in experiment [4] (first compound 0.1 µM) it was 0.0222.

For the cell line EPLC-272H, the relative viability was 0.868 in experiment [1] (0.001 µM); 1.04 in experiment [1] (0.003162 µM); 0.909 in experiment [1] (0.01 µM); 0.342 in experiment [1] (0.03162 µM); 0.151 in experiment [1] (0.1 µM); 1.12 in experiment [2] (first compound 0.01 µM). Besides, the relative viability in experiment [2] (first compound 0.03162 µM) amounted to 1.29; in experiment [2] (first compound 0.1 µM) it was 1.41; in experiment [2] (first compound 1 µM) it was 1.2; in experiment [3] (first compound 0.01 µM) it was 0.533; in experiment [3] (first compound 0.03162 µM) it was 0.383; in experiment [3] (first compound 0.1 µM), 0.548. Also, the relative viability in experiment [3] (first compound 0.3162 µM) stood at 0.297; in experiment [3] (first compound 1 µM), 0.484; in experiment [4] (first compound 0.001 µM), 0.31; in experiment [4] (first compound 0.003162 µM), 0.327; in experiment [4] (first compound 0.01 µM), 0.193; in experiment [4] (first compound 0.03162 µM), 0.265. Further, the relative viability in experiment [4] (first compound 0.1 µM) was 0.227.

Consider 201T, for which the relative viability in experiment [1] (0.001 µM) came to 0.978; in experiment [1] (0.003162 µM) it was 1.05; in experiment [1] (0.01 µM), 1.03; in experiment [1] (0.03162 µM), 0.786; in experiment [1] (0.1 µM), 0.367; in experiment [2] (first compound 0.01 µM) it was 1.22. Besides, the relative viability in experiment [2] (first compound 0.03162 µM) is 1.26; in experiment [2] (first compound 0.1 µM) it was 1.23; in experiment [2] (first compound 0.3162 µM) it was 1.29; in experiment [2] (first compound 1 µM), 1.24; in experiment [3] (first compound 0.01 µM), 0.941; in experiment [3] (first compound 0.03162 µM) it was 1.06. Besides, the relative viability in experiment [3] (first compound 0.1 µM) came out at 0.972; in experiment [3] (first compound 0.3162 µM), 0.487; in experiment [3] (first compound 1 µM), 0.832; in experiment [4] (first compound 0.001 µM) it was 0.308; in experiment [4] (first compound 0.003162 µM), 0.334; in experiment [4] (first compound 0.01 µM), 0.328. Besides, the relative viability was determined as 0.32 in experiment [4] (first compound 0.03162 µM) and 0.264 in experiment [4] (first compound 0.1 µM).

(Values after the supplement of paper PMC10307832.)
